# Assay results published in patent US7592326B2, “Method for stimulating the immune, inflammatory or neuroprotective response” (priority 2004, dated 2009).
# Columns and labels:
# [1] = tested on: influenza virus A/Puerto Rico/8/34 (H1N1, PR8); settings: in vivo
# S. pneumoniae strain D39 = test: Mouse pneumococcal pneumonia (proposed); type: in vivo; settings: 200 nmol 24- and 48 hours prior; 1×10^5 CFU D39
# [2] = tested on: Plasmacytoid dendritic cells (pDCs); test: IFN secretion by human plasmacytoid dendritic cells; type: cell-based; settings: two independent experiments in duplicate; data not shown
# Protocol: Venipuncture was performed on consenting adults using approved protocols. Plasmacytoid dendritic cells (pDCs) were prepared, as previously described (Schroeder et al., 2005), using a 2-step procedure involving Percoll density centrifugation followed with selection for Blood Dendritic Cell Antigen (BDCA)-4 positive cells (Miltenyi Biotec, Inc., Auburn, Calif.). The capacity of c-di-GMP to induce IFN-alpha from these cells was assessed using cell culture and ELISA protocols also previously described (Schroeder et al., 2005) and was simultaneously compared to the […] produced by pDC in response to cells stimulated with CpG oligodeoxynucleotide (ODN)-2216 (Krieg, 2002).
# anti-ClfA IgG antibody = test: Adjuvant effect in vaccination with S. aureus ClfA (serum ELISA); type: in vivo, CD-1 female mice
# Protocol: To evaluate the capacity of c-di-GMP to increase antibody production in the mouse (adaptive immune response), the cyclic dinucleotide was used as adjuvant for vaccination with S. aureus ClfA recombinant protein (a surface adhesion protein of S. aureus binding fibrinogen), as previously done for ClfA alone without adjuvant (Brouillette et al., 2002). Two groups of eight CD-1 female mice were vaccinated intramuscularly with 100 μl of saline containing 25 μg of ClfA. For one of the groups, the solution injected also contained 200 nmol of c-di-GMP. A volume of 50 ul was then injected into both quadriceps. This procedure was repeated two weeks after, for a second injection. Twelve days later, i.e. 26 days after the initial injections, blood samples were taken and incubated at 35° C. for an hour to allow coagulation, and then centrifuged at 13,000 g for 10 min at 4° C. Sera were harvested and kept at −20° C. until tested. The institutional ethics committee on animal experimentation of the Faculté des sciences of Université de Sherbrooke approved these experiments and were carried out following the guidelines of the Canadian Council on Animal Care.
# Enzyme-linked immunosorbant assays (ELISA) were used to determine the presence of IgG antibodies against the ClfA antigen in the mouse serum, as previously described (Brouillette et al., 2002). Polystyrene Maxisorp 96-well plates (Nalge-Nunc International) were coated for 2 h with 50 μl of recombinant ClfA (domaine A) protein at a concentration of 10 μg/ml in carbonate/bicarbonate buffer at pH 9.6. Following saturation of the wells with a solution of powdered milk in PBS (5% w/v), overnight at 4° C., four-fold dilutions of sera (1/1000 to 1/64000) were added and incubated for 2 h at 35° C. and then overnight at 4° C. Biotinylated anti-mouse IgG (1/1000) was added and incubated for 2 h at 35° C. After 1 h of incubation with streptavidin-HRP (Amersham Pharmacia Biotech) diluted 1/500, 100 μl of Sure Blue TMB Peroxidase Substrate (KPL) was added. The enzyme reaction was stopped by the addition of 50 μl of 1N HCl after 6 min of incubation. Between each step, three washes with PBS-Tween 0.05% were carried out. The optical density (OD) was read on a plate reader (Bio-Tek Instruments) at 450 nm.
# ELISA assays were carried out as for the total IgG assay but the secondary antibody was either mouse anti-IgG1-HRP or mouse anti-IgG2a-HRP (BD Pharmingen) and four-fold dilutions of sera form 1/250 to 1/16000 were assayed. Quantitation of mouse antibodies was achieved as for the total IgG assay but the development of coloration was allowed for 10 min. […] For the statistical analysis of ELISA results, the O.D. data for mice vaccinated with the c-di-GMP molecule as adjuvant were matched up to the corresponding data (isotype and dilution) where mice were injected with saline instead of c-di-GMP. One way analysis of variance (ANOVA) was used with the Bonferroni post-hoc test to account for multiple comparisons (Graphpad InStat software, version 3.06).
# DCs = test: DC apoptosis (FITC-Annexin V/PI double staining); type: cell-based, human; settings: 24 h
# Protocol: FITC-Annexin V/Propidium Iodure (PI) double staining was used to detect apoptosis of DCs treated with c-di-GMP. Immature and mature DCs, untreated or treated with c-di-GMP for 24 h, were harvested and washed twice with ice cold PBS; specific binding of FITC-annexin V and staining with PI was performed with an apoptosis detection kit accordingly to the manufacturer's instructions. The cells were then analyzed by flow cytometry.
# [3] = serum dilution of 1/1000, FIG. 7B
smiles,measurement,setting,value
"Nc1nc(=O)c2ncn([C@@H]3OC4COP(=O)(O)O[C@H]5[C@@H](O)[C@H](n6cnc7c(=O)nc(N)[nH]c76)O[C@@H]5COP(=O)(O)OC4C3O)c2[nH]1 (stereo partly shown) [c-di-GMP, Bis(3′→5′)-cyclic diguanylic acid]",outcome compared to control mice,[1],"increased survival, less weight loss"
same,bacterial counts in the lungs,S. pneumoniae strain D39,decreased bacterial counts
same,induction of Type I IFN from pDC,[2],negative
same,"ELISA optical density, IgG1 and IgG2a isotypes","anti-ClfA IgG antibody; serum dilution 1/16000, c-di-GMP treated group",around 0.5
same,"ELISA optical density, total IgG","anti-ClfA IgG antibody; serum dilution 1/64000, c-di-GMP treated group",around 0.5
same,increase of IgG1 (optical density ratio c-di-GMP/saline),anti-ClfA IgG antibody; [3],3.6 times
same,increase of IgG2a (optical density ratio c-di-GMP/saline),anti-ClfA IgG antibody; [3],208.9 times
same,increase of total IgG (optical density ratio c-di-GMP/saline),anti-ClfA IgG antibody; [3],7.7 times
same,anti-ClfA IgG antibody titers compared with ClfA alone,"anti-ClfA IgG antibody; two i.m. injections, 200 nmol c-di-GMP + 25 μg ClfA, serum day 26, P<0.001",significantly higher
same,Early apoptosis (% of annexin V^+/PI^− cells),DCs; cdiGMP 5 μM,23%
same,Late apoptosis (% of annexin V^+/PI^+ cells),DCs; cdiGMP 5 μM,36%
same,Early apoptosis (% of annexin V^+/PI^− cells),DCs; cdiGMP 50 μM,31%
same,Late apoptosis (% of annexin V^+/PI^+ cells),DCs; cdiGMP 50 μM,40%
same,Early apoptosis (% of annexin V^+/PI^− cells),DCs; cdiGMP 100 μM,18%
same,Late apoptosis (% of annexin V^+/PI^+ cells),DCs; cdiGMP 100 μM,42%
same,effect on DC apoptosis,DCs; immature and mature DCs,did not appear to have any effect
